Measured values from US20180077929A1, “METHODS AND SYSTEMS FOR TREATING MEDICAL DEVICES AND FLUIDS” (priority 2016, published 2018).

Key:
Format in all cases: biochemical
[1] = Testing of various sources of LPS with CaSt in water
Description: Therefore, for the methods described above, the activity of endotoxin was tested with various sources of endotoxin. Laboratory grown endotoxin is purified while natural endotoxin will be present with other substances such as proteins and phospholipids.
The laboratory grown endotoxin used in this experiment was supplied by Charles River Laboratories.
Natural airborne endotoxin was captured using an electret filter. Electret filters are produced from dielectric polymer fibers that develop an electrical charge when air flows past them, capturing the endotoxin along with other particles. The endotoxin was extracted from the filter by placing the filter in endotoxin free water for an extended period of time.
Two other natural sources of endotoxin were obtained from water samples in the surrounding environment. One source was a pool of sitting rain water and other being a small puddle on the side of the Raritan River. The sitting rain water (SRW) was purified via chlorination and 0.2 μm filter. The Raritan River Water (RRW) was not altered in anyway. The same testing procedure was conducted for all sources of endotoxin.

[2] = Kinetics of removal of LPS with different agitation techniques and stearate salts; details: for Endotoxin Detected: 5 mL SRW, baseline 1,502 EU; for Percent (%) Removed: SRW baseline 1,502 EU
Description: 5 mL of SRW was added to each of the tubes. Each solution was tested for endotoxin removal after agitation based on with sonication, vortexing, or test tube rolling. Sonication samples were sonicated at each indicated time interval for 30 seconds at a magnitude of 30. Vortex samples were vortexed at each indicated time interval for 30 seconds at 2500 RPM. Rolling samples were constantly rolling at 10 rpm. The samples were tested on the MCS for endotoxin at 1 minute, 20 minutes, 40 minutes, 60 minutes, and 80 minutes.

[3] = Suture testing in aqueous suspension of CaSt
Description: Treatment of sutures in aqueous suspensions of CaSt was performed as follows: Suture used was VICRYL® (Polyglactin 910) suture made of a copolymer made from 90% glycolide and 10% L-lactide, Size 1, 27 inch pieces. Endotoxin sources used were sitting (or stagnant) Rain Water (SRW) and diluted with LRW to obtain a concentration of (3980 EU/mL). Endosafe LAL Reagent Water (LRW) was used, manufactured by Charles River Laboratories, Charleston S.C.
Eight strands of suture were placed in tubing with LPS (endotoxin) solution for 10 minutes at a time. The sutures were dried for 20 minutes and then placed in round bottom tubes. Suspensions of 5% by weight CaSt in LAL Reagent Water were prepared. (0.5 g CaSt in 10 mL LRW). One suture was placed in each tube and vortexed in this solution for approximately 10 seconds. The sutures were removed and allowed to dry for 20 minutes and then placed in round bottom tubes. This was done for 3 sutures. Three pieces of suture, serving as the control, were not submerged in any solutions and placed in test tubes. 3 mL of LAL reagent water was added to each test tube, vortexed vigorously for 1 minute, and then placed in a hot water bath at 37° C. for 1 hour. They were then removed, vortexed vigorously for 1 minute, diluted, and tested on the MCS system. The water that was mixed with the calcium stearate was also tested. Two sutures were submerged in LRW that was mixed with calcium stearate. The LRW was separated from the calcium stearate before two sutures were submerged. These were also tested for endotoxin on the MCS.

[4] = Charles River Standard, 8330 EU spiked, 0.05 g Calcium Stearate
[5] = Charles River Standard, 8330 EU spiked, 0.15 g Calcium Stearate
[6] = Charles River Standard, 8330 EU spiked, 0.25 g Calcium Stearate
[7] = Dust Filter Extraction Water, 9280 EU spiked, 0.01 g Calcium Stearate
[8] = Dust Filter Extraction Water, 9280 EU spiked, 0.25 g Calcium Stearate
[9] = RRW endotoxin, 4340 EU spiked, 0.01 g Calcium Stearate
[10] = RRW endotoxin, 4340 EU spiked, 0.1 g Calcium Stearate
[11] = RRW endotoxin, 4340 EU spiked, 0.25 g Calcium Stearate
[12] = SRW endotoxin, 11100 EU spiked, 0.01 g Calcium Stearate

## Calcium Stearate
[1]; 0.1 grams of calcium stearate and higher, all sources of endotoxin
  percent of endotoxin recovered: under 5%
[1]; Charles River Standard, 8330 EU spiked, 0.007 g Calcium Stearate
  Percent of Endotoxin Detected: 48.0%
[1]; Charles River Standard, 8330 EU spiked, 0.018 g Calcium Stearate
  Percent of Endotoxin Detected: 17.9%
[1]; Charles River Standard, 8330 EU spiked, 0.028 g Calcium Stearate
  Percent of Endotoxin Detected: 2.8%
[1]; [4]
  Endotoxin Detected: 190.5 EU
  Percent of Endotoxin Detected: 2.3%
[1]; [5]
  Endotoxin Detected: 86.5 EU
  Percent of Endotoxin Detected: 1.0%
[1]; [6]
  Endotoxin Detected: 38.5 EU
  Percent of Endotoxin Detected: 0.5%
[1]; [7]
  Endotoxin Detected: 3440 EU
  Percent of Endotoxin Detected: 37.1%
[1]; [8]
  Endotoxin Detected: 28.5 EU
  Percent of Endotoxin Detected: 0.3%
[1]; [9]
  Endotoxin Detected: 960 EU
  Percent of Endotoxin Detected: 22.1%
[1]; [10]
  Endotoxin Detected: 165 EU
  Percent of Endotoxin Detected: 3.8%
[1]; [11]
  Endotoxin Detected: 70 EU
  Percent of Endotoxin Detected: 1.6%
[1]; RRW endotoxin, 4340 EU spiked, 0.35 g Calcium Stearate
  Percent of Endotoxin Detected: 2.6%
[1]; [12]
  Endotoxin Detected: 2780 EU
  Percent of Endotoxin Detected: 25.0%
[1]; SRW endotoxin, 11100 EU spiked, 0.25 g Calcium Stearate
  Percent of Endotoxin Detected: 1.0%
[2]; Rolling, 1 minute
  Endotoxin Detected: 1,230 EU
  Percent (%) Removed: 18.1%
[2]; Rolling, 20 minutes
  Endotoxin Detected: 1,050 EU
  Percent (%) Removed: 30.1%
[2]; Rolling, 40 minutes
  Endotoxin Detected: 630 EU
  Percent (%) Removed: 58.1%
[2]; Rolling, 60 minutes
  Endotoxin Detected: 637 EU
  Percent (%) Removed: 57.6%
[2]; Rolling, 80 minutes
  Endotoxin Detected: 451 EU
  Percent (%) Removed: 70%
[2]; Sonication, 1 minute
  Endotoxin Detected: 270 EU
  Percent (%) Removed: 82%
[2]; Sonication, 20 minutes
  Endotoxin Detected: 130 EU
  Percent (%) Removed: 91.3%
[2]; Sonication, 40 minutes
  Endotoxin Detected: 87.5 EU
  Percent (%) Removed: 94.2%
[2]; Sonication, 60 minutes
  Endotoxin Detected: 56.9 EU
  Percent (%) Removed: 96.2%
[2]; Sonication, 80 minutes
  Endotoxin Detected: 16.4 EU
  Percent (%) Removed: 98.9%
[2]; Vortexing, 1 minute
  Endotoxin Detected: 451 EU
  Percent (%) Removed: 70%
[2]; Vortexing, 20 minutes
  Endotoxin Detected: 301 EU
  Percent (%) Removed: 80%
[2]; Vortexing, 40 minutes
  Endotoxin Detected: 139 EU
  Percent (%) Removed: 90.7%
[2]; Vortexing, 60 minutes
  Endotoxin Detected: 173 EU
  Percent (%) Removed: 88.5%
[2]; Vortexing, 80 minutes
  Percent (%) Removed: 93.1%
[3]; Water with 5% Calcium Stearate, solution tested after suture removal
  Endotoxin Detected: <1.0 EU
[3]; sutures 4-6 in LAL Water w/5% Calcium Stearate vs. sutures not submerged
  Average Change in Endotoxin Level: −96.1%
[3]; sutures 4-6 in LAL Water w/5% Calcium Stearate, untreated average 84 EU
  Average Endotoxin Detected: 3.27 EU
